Measured values: patent US7482344B2, “Tricyclic steroid hormone nuclear receptor modulators” (Eli Lilly and Company, priority 2003, dated 2009)

The molecules below were run against T1, MR (Homo sapiens, UniProt P08235) (assay: Mineralocorticoid Receptor Binding Assay (Method 1), [3H]-aldosterone competition). Conditions: human MR expressed in Sf9 cells, 0.5 nM [3H]-aldosterone.
T1 sequence (P08235 1-984): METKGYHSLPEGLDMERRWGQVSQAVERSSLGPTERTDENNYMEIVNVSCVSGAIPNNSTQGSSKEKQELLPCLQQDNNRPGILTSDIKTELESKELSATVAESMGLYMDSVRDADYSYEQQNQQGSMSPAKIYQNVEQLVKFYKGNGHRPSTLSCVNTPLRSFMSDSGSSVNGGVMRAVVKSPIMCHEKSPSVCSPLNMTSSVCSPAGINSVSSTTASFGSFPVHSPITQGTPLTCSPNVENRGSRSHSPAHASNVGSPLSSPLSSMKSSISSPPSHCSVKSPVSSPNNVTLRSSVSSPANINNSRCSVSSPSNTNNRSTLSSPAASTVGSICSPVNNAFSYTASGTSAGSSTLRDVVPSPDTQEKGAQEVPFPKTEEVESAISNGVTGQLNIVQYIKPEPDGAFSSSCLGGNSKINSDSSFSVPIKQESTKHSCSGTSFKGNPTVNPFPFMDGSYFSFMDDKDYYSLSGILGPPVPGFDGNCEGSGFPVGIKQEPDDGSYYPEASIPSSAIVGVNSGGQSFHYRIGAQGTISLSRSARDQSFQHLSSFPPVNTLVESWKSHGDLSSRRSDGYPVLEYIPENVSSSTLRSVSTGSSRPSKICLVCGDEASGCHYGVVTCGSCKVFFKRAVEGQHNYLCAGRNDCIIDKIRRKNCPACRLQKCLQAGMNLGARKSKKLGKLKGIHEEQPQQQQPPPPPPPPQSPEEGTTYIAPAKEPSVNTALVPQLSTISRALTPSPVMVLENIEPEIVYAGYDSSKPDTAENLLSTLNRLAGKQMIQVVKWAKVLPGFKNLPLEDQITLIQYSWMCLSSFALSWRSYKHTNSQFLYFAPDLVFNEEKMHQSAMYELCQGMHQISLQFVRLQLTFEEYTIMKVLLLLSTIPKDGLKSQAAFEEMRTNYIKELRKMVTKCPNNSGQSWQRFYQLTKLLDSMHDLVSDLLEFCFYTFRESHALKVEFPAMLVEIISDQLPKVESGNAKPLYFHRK
Parameters: The full length human MR gene is cloned from a human kidney or human brain cDNA library; made in house; host or cells: SF9 insect cells (pAcHLT baculovirus transfer vector)
Procedure: Mineralocorticoid Receptor Binding Assay (Method 1):
The full length human MR gene is cloned from a human kidney or human brain cDNA library. Briefly, using synthetic oligonucleotide primers (Eli Lilly and Company, Indianapolis) directed to nucleotides 20-54 and 3700-3666 of the human MR, polymerase chain reaction (PCR) is performed under standard conditions using a human cDNA library. The PCR reaction is performed in a final volume of 50 μl containing about 1μl of a 50× stock solution of polymerase; about 1 μl of a 50× stock solution of dNTP; about 5μl of an appropriate PCR buffer; about 1 μl of each primer; about 5 μl of a H. kidney or H. brain cDNA library; and about 36 μl of water. The reaction is allowed to denature for about 30 seconds at 95 degrees Celsius, anneal for about 30 seconds at 55 degrees Celsius, and extend for about 5 minutes at 72 degrees Celsius, the sequence being repeated for a total of about 35 cycles. The desired PCR product (3.68 Kb) is confirmed by gel electrophoresis and subsequently cut from the gel and stored at about −20 degrees Celsius until extraction. To extract the cDNA product from the agarose gel, the QIAEX II Gel Extraction protocol (QIAGEN, Inc.) is employed according to the manufacturer's instructions. Following extraction, the MR cDNA is cloned into an appropriate cloning vector (Zero Blunt TOPO PCR Cloning Kit (Invitrogen, Inc.) and a pAcHLT-baculovirus transfer vector (B.D./Pharminogen), then expressed in SF9 insect cells, essentially according to manufacturer's instructions. Sf9 cells are grown at a scale where gram quantity cell pellets are obtained for subsequent use in the MR binding assay. Harvested cell pellets are lysed by repeated freeze-thaw cycles (about 4) in a suitable lysis buffer then centrifuged at about 1×10^3G (with the supernatant being saved for future assays).
MR binding assays are performed in a final total volume of about 250 μl containing about 20-25 μg of protein and 0.5 nM of [^3H]-aldosterone plus varying concentrations of test compound or vehicle. The assay binding buffer consists of 30 mM sodium molybdate, 30 mM of TRIS-HCl, 5 mM sodium phosphate, 5 mM sodium pyrophosphate, and about 10% glycerol, pH=7.5.
Briefly, assays are prepared at RT in 96-well Falcon 3072 plates, each well containing 210 μof binding buffer, 10 μl of […], 10 μl of test compound/vehicle, and 20 μl of the resuspended receptor protein extract. Incubations are carried out at 4 degrees Celsius with shaking for about 16 hours. 200 μl aliquots of each incubation are filtered onto Millipore HA 0.45 micron 96-well filter plates, pre-moistened with cold 30 mM TRIS-HCl. The filter plates are suctioned dry with vacuum and immediately washed 3× with cold 30 mM TRIS-HCl. The plates are then punched out and the amount of receptor-ligand complex is determined by liquid scintillation counting using 4 ml of Ready Protein Plus™ liquid scintillation cocktail.

Ki, < 500 nM:
CC(=C1c2ccccc2Sc2ccccc21)c1cccc(NS(C)(=O)=O)c1 [Example 4, 9-[1-(3-methylsulfonoylaminophenyl)ethylene] thioxanthine]
O=c1[nH]c2ccc(C=C3c4ccc(F)cc4Sc4cc(F)ccc43)cc2[nH]1 [Example 5, 5-(3,6-Difluoro-thioxanthen-9-ylidenemethyl)-1,3-dihydro-benzoimidazol-2-one]
CC(=C1c2ccccc2Sc2ccccc21)c1cccc(N)c1 [Example 6]
CS(=O)(=O)Nc1cccc(C=C2c3ccccc3Sc3ccccc32)c1 [Example 8]
Nc1cccc(C=C2c3ccccc3Sc3ccccc32)c1 [Example 9]
O=c1[nH]c2ccc(C=C3c4ccccc4Sc4ccccc43)cc2[nH]1 [Example 10]
O=c1[nH]c2cc(C=C3c4ccccc4Sc4ccccc43)ccc2o1 [Example 11]
O=c1[nH]c2cc(C=C3c4ccccc4Sc4ccccc43)ccc2s1 [Example 12]
O=c1[nH]c2cc(C=C3c4ccccc4Sc4ccccc43)ccc2n1CCN1CCOCC1 [Example 13]
CN1CCN(CCn2c(=O)[nH]c3cc(C=C4c5ccccc5Sc5ccccc54)ccc32)CC1 [Example 14]
Oc1ccccc1C=C1c2ccccc2Sc2ccccc21 [Example 15]
